This is an account of results in publication PMC11876671, “Investigating blood–brain barrier penetration and neurotoxicity of natural products for central nervous system drug development” (Scientific Reports, 2025).

Where a name gives a salt, the structure may show the parent alone.

Details in one data set: not given
`COc1cc2c(c3oc(=O)c4c(c13)CCC4=O)[C@@H]1CCO[C@@H]1O2` [DIHYDROAFLATOXINE B1]: the “PAMPA-BBB Pe(10^-6 cm/sec)” value is 2.8 10^-6 cm/sec.

The same data set, now with this note: PAMPA.
Regarding `O=C(N[C@H](CO)[C@H](O)c1ccc([N+](=O)[O-])cc1)C(Cl)Cl` [CHLORAMPHENICOL], the “PAMPA-BBB Pe(10^-6 cm/sec)” value is listed as 3.5 10^-6 cm/sec. `Cc1nccc2c1[nH]c1ccccc12` [HARMAN]: the “PAMPA-BBB Pe” value is recorded as 60 10^-6 cm/sec. On the same count and under the same terms, next, `COc1ccc2c(c1OC)C(=O)O[C@@H]2[C@H]1c2c(cc3c(c2OC)OCO3)CCN1C` [NOSCAPINE HYDROCHLORIDE]: 75 10^-6 cm/sec.

Staying with this data set, now noted: Table S2: compounds exhibiting moderate to high PAMPA-BBB permeability.
Consider `CC(=O)Oc1ccc(/C=C/c2cc(OC(C)=O)cc(OC(C)=O)c2)cc1` [NCGC00095675-03], for which the “PAMPA-BBB Pe” value is 200 10^-6 cm/sec. Same read-out and setting: next, `COC(=O)c1c(C)c2c(c(C)c1O)OC(=O)c1c(C)c(Cl)c(O)c(Cl)c1O2` [NCGC00095464-04]: 281 10^-6 cm/sec; `COc1cc2c(cc1OC)C(C(=O)c1ccc(OC)c(OC)c1O)=NCC2` [NCGC00160282-01]: 19 10^-6 cm/sec; `COc1ccc(C(=O)OC2CC3CC[C@H](C2)N3C(C)=O)cc1OC` (stereo partly shown) [NCGC00160255-01]: 22 10^-6 cm/sec.

Turning to `COc1c2ccoc2nc2c(OC)c(OC[C@@H](O)C(C)(C)O)ccc12` [NCGC00179458-02], the “PAMPA-BBB Pe” value is given as 12 10^-6 cm/sec. As for `COc1ccc(-c2cc(=O)c3c(O)cc(OC)c(OC)c3o2)c(OC)c1` [NCGC00263973-02], the “PAMPA-BBB Pe” value was 201 10^-6 cm/sec. `COc1cccc2c(=O)c3ccoc3n(C)c12` [NCGC00160208-01]: the “PAMPA-BBB Pe” value is given as 54 10^-6 cm/sec. Same read-out and setting: next, `CCOC(=O)c1c(C)cc(OC)cc1O` [NCGC00095529-01]: 290 10^-6 cm/sec; `C[C@@H]1O[C@@H](O[C@H]2CC[C@@H](O[C@H]3[C@H](O)C[C@H](c4ccc5c(c4O)C(=O)C4=C(C5=O)[C@@]5(O)C(=O)C[C@](C)(O[C@H]6CC[C@H](O[C@H]7C=CC(=O)[C@H](C)O7)[C@H](C)O6)C[C@@]5(O)C=C4)O[C@@H]3C)O[C@H]2C)C=CC1=O` [NCGC00163640-01]: 17 10^-6 cm/sec. Still for that read-out and setting: next, `NC(=O)Nc1ccc(Cl)c(Cl)c1` [NCGC00255466-01]: 148 10^-6 cm/sec; `COc1ccc2c(c1)O[C@@H]1COc3cc(OC)c(OC)cc3[C@@H]1C2=O` [NCGC00178970-02]: 355 10^-6 cm/sec. Turning to `C=C(C)[C@H]1COc2cc3oc(=O)ccc3cc2O1` [NCGC00179107-03], the “PAMPA-BBB Pe” value is given as 152 10^-6 cm/sec. As for `COc1cc(OC)c2c(c1)OC(c1ccccc1)CC2=O` (stereo not shown) [NCGC00142553-05], the “PAMPA-BBB Pe” value is recorded as 176 10^-6 cm/sec. Regarding `COC(=O)C1=CO[C@@H](C)[C@@H]2CN3CC[C@]4(C(=O)Nc5c4ccc(OC)c5OC)[C@H]3C[C@H]12` [NCGC00160292-01], the “PAMPA-BBB Pe” value is on record as 46 10^-6 cm/sec. Consider `CC(=O)OC(C)(C)[C@@H]1Cc2cc3ccc(=O)oc3cc2O1` [NCGC00178115-02], for which the “PAMPA-BBB Pe” value is listed as 128 10^-6 cm/sec. In the case of `COc1ccc([C@@H](C)C(=O)c2ccc(O)cc2O)cc1` [NCGC00160149-03], the “PAMPA-BBB Pe” value is on record as 345 10^-6 cm/sec. For the compound `COc1cc2c(cc1OC)C(=O)OC2` [NCGC00095581-04], the “PAMPA-BBB Pe” value is reported as 12 10^-6 cm/sec. Regarding `COc1ccc(-c2oc3cc(OC)c(OC)c(OC)c3c(=O)c2OC)cc1` [NCGC00264011-02], the “PAMPA-BBB Pe” value is on record as 308 10^-6 cm/sec.

For the compound `COc1cc(OC)c2c(c1Cl)O[C@]1(C2=O)[C@H](C)CC(=O)C[C@@H]1OC` [NCGC00016380-01], the “PAMPA-BBB Pe” value was 31 10^-6 cm/sec. On the same count and under the same terms, next, `CCCCCc1c2c(cc(O)c1C(=O)O)OC(=O)c1cc(C(=O)CCCC)c(OC)cc1O2` [NCGC00160140-01]: 120 10^-6 cm/sec.

In the case of `CN(C)CCc1cc2c(c3c1ccc1ccccc13)OCO2` [NCGC00160247-01], the “PAMPA-BBB Pe” value is on record as 27 10^-6 cm/sec. Same read-out and setting: next, `COc1cc2c(cc1O)[C@@H]1Cc3ccc(OC)c(O)c3CN1CC2` [NCGC00179539-03]: 78 10^-6 cm/sec. On the same count and under the same terms, next, `COc1ccc(-c2coc3cc(O)ccc3c2=O)c(O)c1O` [NCGC00095474-02]: 14 10^-6 cm/sec; `O=C(/C=C/c1ccc(O)c(O)c1)OCCc1ccccc1` [PHENETHYL CAFFEATE]: >1000 10^-6 cm/sec.

Still in this data set, the particulars now being: Table S3: compounds exhibiting low PAMPA-BBB permeability.
Turning to `OC[C@H]1O[C@@H](n2cnc3cncnc32)[C@H](O)[C@@H]1O` [NEBULARINE¦NEBULARINE], the “PAMPA-BBB Pe(10^-6 cm/sec)” value is <1 10^-6 cm/sec. For the compound `c1ccc2c3c([nH]c2c1)[C@H]1[C@@H]2CC[C@@H]([C@@H]4CCCN[C@@H]42)N1CC3` [NCGC00262532-02], the “PAMPA-BBB Pe(10^-6 cm/sec)” value is given as <1 10^-6 cm/sec. Same read-out and setting: next, `COC(=O)[C@H](Cc1ccccc1)NC(=O)/C(=C1\OC(=O)C(c2ccccc2)=C1O)c1ccccc1` [NCGC00263991-01]: <1 10^-6 cm/sec; `C=C/C(C)=C/[C@@]1(C)SC(=O)C(C)=C1O` [NCGC00261593-01]: <1 10^-6 cm/sec; `C=CC(O)C1OC1C=CC1OC1C(C)O` (stereo not shown) [NCGC00263647-01]: <1 10^-6 cm/sec. As for `COc1ccc([C@@H]2[C@@H](O)[C@H](O)[C@@H](C)N2C)cc1OC` [NCGC00160242-01], the “PAMPA-BBB Pe(10^-6 cm/sec)” value was 1.3 10^-6 cm/sec. Consider `COc1cc(/C=C2/C(=O)Nc3ccccc32)cc(OC)c1O` [NCGC00343740-01], for which the “PAMPA-BBB Pe(10^-6 cm/sec)” value was 4.8 10^-6 cm/sec.

Consider `CC(=O)NCCc1c[nH]c2ccccc12` [NCGC00260786-01], for which the “PAMPA-BBB Pe(10^-6 cm/sec)” value is given as 5.7 10^-6 cm/sec. Same read-out and setting: next, `COc1cc(C/C=C\c2ccccc2)c(OC)cc1O` [NCGC00160148-01]: 1.3 10^-6 cm/sec; `COc1c2ccoc2nc2c(OC)c(O[C@@H]3O[C@H](C)[C@@H](O)[C@@H](O)[C@H]3O)ccc12` [NCGC00160235-01]: <1 10^-6 cm/sec.

For the compound `COc1ccccc1O[C@@H]1O[C@H](CO)[C@H](O)[C@H](O)[C@H]1O` [NCGC00351878-01], the “PAMPA-BBB Pe(10^-6 cm/sec)” value is listed as 1.5 10^-6 cm/sec. With `COc1ccc(C2CC(=O)c3ccc(OC)cc3O2)cc1` (stereo not shown) [NCGC00095734-01], the “PAMPA-BBB Pe(10^-6 cm/sec)” value was 5.8 10^-6 cm/sec. Still for that read-out and setting: next, `O=C(NC[C@H](O)c1ccccc1)c1ccccc1` [NCGC00160191-01]: <1 10^-6 cm/sec; `Cn1c2c(c(=O)c3ccccc31)C[C@@H](O)C(C)(C)O2` [NCGC00160238-01]: <1 10^-6 cm/sec. The same measure, in the same setting: next, `CC1=CC(=O)/C(=C(/C)O)C(=O)O1` [NCGC00254206-01]: 3.3 10^-6 cm/sec; `OC[C@H]1O[C@@H](Oc2cccc3ccccc23)[C@H](O)[C@@H](O)[C@H]1O` [NCGC00351880-01]: <1 10^-6 cm/sec; `Cc1cc(O)c(C)c(O)c1C(=O)O` [NCGC00095485-03]: <1 10^-6 cm/sec. Same read-out and setting: next, `COC(=O)C(O)C(O)(CCC(C)C)C(=O)OC1C(OC)=CC23CCCN2CCc2cc4c(cc2C13)OCO4` (stereo not shown) [NCGC00161614-01]: <1 10^-6 cm/sec; `O=C(CO)c1c[nH]c2ccccc12` [NCGC00182562-01]: 6.7 10^-6 cm/sec. Consider `COc1ccc(C(=O)CC(=O)O)c2c1C=CC(C)(C)O2` [NCGC00074767-03], for which the “PAMPA-BBB Pe(10^-6 cm/sec)” value was <1 10^-6 cm/sec. With `C[C@]12O[C@H](C[C@@]1(O)C(=O)O)n1c3ccccc3c3c4c(c5c6ccccc6n2c5c31)CNC4=O` [NCGC00163504-01], the “PAMPA-BBB Pe(10^-6 cm/sec)” value was <1 10^-6 cm/sec. With `COc1cc(-c2oc3cc(O)cc(O)c3c(=O)c2O[C@@H]2O[C@H](CO)[C@@H](O)[C@H](O)[C@H]2O)cc(OC)c1O` [NCGC00163630-01], the “PAMPA-BBB Pe(10^-6 cm/sec)” value was <1 10^-6 cm/sec. With `C[N+]12CC[C@@]34c5ccccc5N5C(=O)C[C@@H]6OCC=C(C1)[C@H](CC32)[C@@H]6C54` (stereo partly shown) [NCGC00264058-02], the “PAMPA-BBB Pe(10^-6 cm/sec)” value was <1 10^-6 cm/sec. Consider `COc1ccc2[nH]cc(CCO)c2c1` [NCGC00163352-01], for which the “PAMPA-BBB Pe(10^-6 cm/sec)” value is on record as 9.4 10^-6 cm/sec. On the same count and under the same terms, next, `C/C=C(\C)C(=O)O[C@H]1CC(C)=C2C(=O)C=C(C)C2[C@@H]2OC(=O)[C@@](C)(OC(=O)C=C(C)C)C21` (stereo partly shown) [NCGC00160270-01]: 5.7 10^-6 cm/sec; `Cc1cc(O)c2c(c1O)C(=O)C(O)=C(O)C2=O` [NCGC00160271-01]: 4.8 10^-6 cm/sec.

On to `CNCCCCc1cnc(C)c2[nH]c3ccccc3c12` [NCGC00160349-01], for which the “PAMPA-BBB Pe(10^-6 cm/sec)” value is <1 10^-6 cm/sec. Still for that read-out and setting: next, `CC(=O)NCCc1ccc(O)c(-c2c(O)c(O)c3c(c2O)C(=O)c2c(cc(O)c(C(=O)O)c2C(=O)O)C3=O)c1` [NCGC00263986-01]: <1 10^-6 cm/sec; `O=C/C=C/c1ccc(O)cc1` [NCGC00095729-01]: 4.5 10^-6 cm/sec; `CC(=O)O[C@H]1C[C@@H](OC(C)=O)C(C)(C)C2C[C@@H](OC(C)=O)[C@]3(C)C(CC[C@@]4(C)[C@H](c5ccoc5)OC(=O)[C@H]5O[C@]543)[C@]21C` (stereo partly shown) [NCGC00179019-03]: 2.7 10^-6 cm/sec. Still for that read-out and setting: next, `C[C@@H]1OC(O[C@H]2[C@H](Oc3cc(O)c4c(=O)c(O)c(-c5ccc(O)cc5)oc4c3)O[C@H](CO)[C@@H](O)[C@@H]2O)[C@H](O)[C@H](O)[C@H]1O` (stereo partly shown) [NCGC00163581-01]: <1 10^-6 cm/sec. Same read-out and setting: next, `O=C(O)c1cc2ccccc2[nH]1` [NCGC00094957-03]: <1 10^-6 cm/sec. As for `O=C1CC[C@]23/C=C/C(=O)NCCCCNCCCNC(=O)/C=C/c4ccc(c2c4)O[C@@H]3C1` [NCGC00263997-01], the “PAMPA-BBB Pe(10^-6 cm/sec)” value is listed as <1 10^-6 cm/sec. Take `O=C1N[C@@H](Cc2c[nH]c3ccccc23)C(=O)N[C@H]1Cc1c[nH]c2ccccc12` [NCGC00160254-01]: the “PAMPA-BBB Pe(10^-6 cm/sec)” value is reported as <1 10^-6 cm/sec. On to `Cc1cc(O)c(C=O)c(O)c1C(=O)O` [NCGC00095742-01], for which the “PAMPA-BBB Pe(10^-6 cm/sec)” value was 2.7 10^-6 cm/sec.

The same data set, now with this note: category in words.
Consider `CC(=O)[C@H]1CC[C@H]2[C@@H]3CCC4=CC(=O)CC[C@]4(C)[C@H]3CC[C@]12C` [progesterone, reference compound], for which the PAMPA-BBB permeability category entry is on record as “high permeability”.
